Experimental data as given in patent US7378121B2, “Use of ferulic acid amides as flavor compounds” (Symrise GmbH & Co. KG, priority 2001, dated 2008).

Legend:
[1] = tested on: mouse; details: cited from earlier work
[2] = with frequent use and overdose; cited from earlier work
[3] = Tasting of the pungent compounds in 11% strength by weight sugar solution (Example 1); type: in vivo, human; details: approx. 5 ml swallowed, 8 testers
Experimental: The substance, under test, was dissolved in ethanol and the ethanolic solution was then diluted with an 11% strength by weight sugar solution (final concentration: c). For tasting, in each case approximately 5 ml of the sugar solution was swallowed. If the threshold value of the substance was known, a value just above the threshold value is chosen for the tasting. A group of 8 testers tasted the solutions.

[4] = in vivo; cited from earlier work
[5] = Sensory assessment of the pungency of liqueur base model system A (10% by volume) with additions; type: in vivo, human; details: 1% by weight of solution (1% by weight in EtOH) added to model system A
Experimental: (§1) The grains of paradise extract used below was prepared by stirring 800 g of ground grains of paradise with 4 kg of ethanol (96% by volume). After filtration the filtrate was concentrated to 40 g and treated with steam at 100° C. and 300 mbar. The extract was made up to 80 g with ethanol (96% by volume).
(§2) As commercially conventional model systems, a liqueur base of 10% by volume and a liqueur base of 5.5% by volume were selected.
To the model system A were then added the solution of the extract of grains of paradise (1% by weight in ethanol (EtOH)) at concentrations of 1 to 3% by weight, based on the total weight of the model system, and a solution of trans-feruloylmethoxytyramine (1% by weight in ethanol) at a concentration of 1% by weight, based on the total weight of the model system. Using a taste-testing group of 8 people, the effect of grains of paradise extract addition and trans-feruloylmethoxytyramine addition on the sensory profile were then tested. The sensory assessment was made on a scale of 1 (weak) to 5 (strong).

[6] = Test of the combined action of grains of paradise extract and trans-feruloylmethoxytyramine in model system A; type: in vivo, human; details: 0.02% by weight solution (10% by weight EtOH) in model system A
Experimental: as §1, §2
Then, to model system A the solution of a grains of paradise extract (10% by weight in ethanol) was added at concentrations of 0.1 to 0.2% by weight, based on the total weight of the model system, and a solution of trans-feruloylmethoxytyramine (10% by weight in ethanol) at a concentration of 0.01 to 0.02% by weight, based on the total weight of the model system. Using a taste-testing group of 8 people, again the effect of grains of paradise extract addition and of trans-feruloylmethoxytyramine addition on the sensory profile were tested. In addition, the combined action was tested.

[7] = Gelled fruits having elderberry flavor, flavor intensifier test; type: in vivo, human; details: elderberry flavor 0.07% by weight
Excerpt: As commercially conventional model system, flavor combinations in gelled fruits having elderberry flavor were used: […]

COc1cc(CNC(=O)CCCC/C=C/C(C)C)ccc1O [capsaicin, N-(4-hydroxy-3-methoxybenzyl)-8-methyl-(6E)-nonenamide]
LD50 (mouse oral) [1]: 47 mg
Chronic damage [2]: chronic gastritis, kidney damage and liver damage

COc1cc(/C=C\C(=O)NCCc2ccc(O)c(OC)c2)ccc1O [cis-feruloylmethoxytyramine, N-[2-(4-hydroxy-3-methoxyphenyl)ethyl]-3-(4-hydroxy-3-methoxyphenyl)-(2Z)-propenamide]
Sensory profile ([3]; c=1 ppm in 11% sugar solution): pungency builds up slowly

COc1cc(/C=C/C(=O)NCc2ccc(O)c(OC)c2)ccc1O [ferulic acid N-vanillylamide, N-(4-hydroxy-3-methoxybenzyl)-4-hydroxy-3-methoxy-(2E)-propenamide]
Pungency as described in the literature [4]: not described as pungent

O=C(/C=C/c1ccc(O)c(O)c1)NCCc1ccc(O)cc1 [trans-caffeoyltyramine, N-[2-(4-hydroxyphenyl)ethyl]-3-(3,4-dihydroxyphenyl)-(2E)-propenamide]
Sensory profile ([3]; c=1 ppm in 11% sugar solution): pungency occurs after a delay, anaesthetizing pungency

COc1cc(/C=C/C(=O)NCCc2ccc(O)c(OC)c2)ccc1O [trans-feruloylmethoxytyramine, N-[2-(4-hydroxy-3-methoxyphenyl)ethyl]-3-(4-hydroxy-3-methoxyphenyl)-(2E)-propenamide]
Sensory profile ([3]; c=10 ppm in 11% sugar solution): body, sweet, heat develops after delay, long-lasting, especially in the pharyngeal cavity (in the case of 4 participants), adherent, slightly anaesthetizing action
Sensory profile ([3]; c=20 ppm in 11% sugar solution): sweet, aniseed-like, benzaldehyde, heat develops after a delay (in the case of 8 participants), long-lasting, especially in the pharyngeal cavity, pleasant pepper pungency
Sensory description [5]: Sweet, vanilla, fruity, less
Pungency (median), Scale 1-5 ([5]; scale 1 (weak) to 5 (strong), 8 people): 2
Comments (sensory) [6]: Mild, pungency very similar
Sensory description ([7]; 0.015% by weight of solution (1% by weight in ethanol)): Effect only slightly perceptible
Sensory description ([7]; 0.03% by weight of solution (1% by weight in ethanol)): Effect below threshold, but pleasant
Sensory description ([7]; 0.045% by weight of solution (1% by weight in ethanol)): Flavor fresh and rounded

COc1ccc(/C=C/C(=O)NCCc2ccc(OC)c(OC)c2)cc1OC [trans-rubenamine, N-[2-(3,4-dimethoxyphenyl)ethyl]-3-(3,4-dimethoxyphenyl)-(2E)-propenamide]
Sensory profile ([3]; c=1 ppm in 11% sugar solution): pleasant mild pungency, builds up slowly
